Data from US8440708B2, “Triazole-substituted arylamides as P2X3 and P2X2/3 antagonists” (Roche Palo Alto LLC, priority 2007, dated 2013).

Key:
[1] = biological target: T1, rat P2X3 receptor (Rattus norvegicus, UniProt P49654); test: P2X3/P2X2/3 FLIPR (Fluorometric Imaging Plate Reader) Assay, P2X3; assay type: cell-based; details: CHO-K1 cells transfected with rat P2X3; agonist α,β-meATP 1 μM; Table 1; read-out: P2X3 pKi (converted)
T1 construct: expressed in transfected cells; host or cells: CHO-K1
T1 sequence (P49654 1-397): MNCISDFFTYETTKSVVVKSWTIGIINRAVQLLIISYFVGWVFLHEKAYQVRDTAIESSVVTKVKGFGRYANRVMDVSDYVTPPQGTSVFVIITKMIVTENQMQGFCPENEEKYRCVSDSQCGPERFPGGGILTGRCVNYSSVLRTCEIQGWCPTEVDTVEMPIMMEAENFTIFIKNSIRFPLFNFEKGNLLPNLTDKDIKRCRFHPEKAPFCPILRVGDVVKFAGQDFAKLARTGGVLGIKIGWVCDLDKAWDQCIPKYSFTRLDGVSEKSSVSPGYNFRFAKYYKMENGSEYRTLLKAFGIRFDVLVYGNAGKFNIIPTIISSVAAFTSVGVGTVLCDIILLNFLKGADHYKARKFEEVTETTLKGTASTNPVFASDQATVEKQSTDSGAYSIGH
Method: (§1) P2X3/P2X2/3 FLIPR (Fluorometric Imaging Plate Reader) Assay
(§2) CHO-K1 cells were transfected with cloned rat P2X3 or human P2X2/3 receptor subunits and passaged in flasks. 18-24 hours before the FLIPR experiment, cells were released from their flasks, centrifuged, and resuspended in nutrient medium at 2.5×10^5 cells/ml. The cells were aliquoted into black-walled 96-well plates at a density of 50,000 cells/well and incubated overnight in 5% CO2 at 37° C. On the day of the experiment, cells were washed in FLIPR buffer (calcium- and magnesium-free Hank's balanced salt solution, 10 mM HEPES, 2 mM CaCl2, 2.5 mM probenecid; FB). Each well received 100 μl FB and 100 μl of the fluorescent dye Fluo-3 AM [2 μM final conc.]. After a 1 hour dye loading incubation at 37° C., the cells were washed 4 times with FB, and a final 75 μl/well FB was left in each well.
(§3) Test compounds (dissolved in DMSO at 10 mM and serially diluted with FB) or vehicle were added to each well (25 μl of a 4× solution) and allowed to equilibrate for 20 minutes at room temperature. The plates were then placed in the FLIPR and a baseline fluorescence measurement (excitation at 488 nm and emission at 510-570 nm) was obtained for 10 seconds before a 100 μl/well agonist or vehicle addition. The agonist was a 2× solution of α,β-meATP producing a final concentration of 1 μM (P2X3) or 5 μM (P2X2/3). Fluorescence was measured for an additional 2 minutes at 1 second intervals after agonist addition. A final addition of ionomycin (5 μM, final concentration) was made to each well of the FLIPR test plate to establish cell viability and maximum fluorescence of dye-bound cytosolic calcium. Peak fluorescence in response to the addition of α,β-meATP (in the absence and presence of test compounds) was measured and inhibition curves generated using nonlinear regression. PPADS, a standard P2X antagonist, was used as a positive control.

[2] = biological target: T2, human P2X2/3 receptor (Homo sapiens, UniProt P56373+Q9UBL9); test: P2X3/P2X2/3 FLIPR (Fluorometric Imaging Plate Reader) Assay, P2X2/3; assay type: cell-based; details: CHO-K1 cells transfected with human P2X2/3; agonist α,β-meATP 5 μM; Table 1; read-out: P2X2/3 pKi (converted)
T2 construct: expressed in transfected cells; host or cells: CHO-K1
T2 sequence (Q9UBL9 1-471): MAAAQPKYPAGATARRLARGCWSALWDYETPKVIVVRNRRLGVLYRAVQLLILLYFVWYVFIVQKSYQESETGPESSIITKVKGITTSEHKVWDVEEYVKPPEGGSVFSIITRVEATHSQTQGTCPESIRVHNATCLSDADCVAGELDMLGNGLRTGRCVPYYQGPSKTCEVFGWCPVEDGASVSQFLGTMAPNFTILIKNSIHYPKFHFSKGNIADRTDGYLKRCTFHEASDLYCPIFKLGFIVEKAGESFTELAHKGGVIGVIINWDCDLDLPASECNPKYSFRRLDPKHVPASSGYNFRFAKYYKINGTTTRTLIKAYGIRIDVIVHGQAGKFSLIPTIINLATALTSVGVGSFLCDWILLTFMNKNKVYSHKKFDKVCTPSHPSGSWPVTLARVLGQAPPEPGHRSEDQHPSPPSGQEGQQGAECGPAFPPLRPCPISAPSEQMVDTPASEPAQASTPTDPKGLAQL
T2 sequence (P56373 1-397): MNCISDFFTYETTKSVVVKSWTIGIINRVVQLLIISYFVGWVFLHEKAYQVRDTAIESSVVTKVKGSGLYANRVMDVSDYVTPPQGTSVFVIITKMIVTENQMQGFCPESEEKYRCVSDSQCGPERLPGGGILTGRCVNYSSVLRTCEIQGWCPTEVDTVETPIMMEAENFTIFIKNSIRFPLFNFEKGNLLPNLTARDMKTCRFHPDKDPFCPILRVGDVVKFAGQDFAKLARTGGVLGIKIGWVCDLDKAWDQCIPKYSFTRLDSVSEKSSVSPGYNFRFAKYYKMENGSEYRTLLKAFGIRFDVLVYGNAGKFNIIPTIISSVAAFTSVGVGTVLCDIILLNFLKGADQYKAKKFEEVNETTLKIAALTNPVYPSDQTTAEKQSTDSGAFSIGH
Method: as §1, §2, §3

Row | Structure (SMILES) | Ki [1] | Ki [2]
1 | CCn1nncc1-c1cc(C(=O)NC(C)c2cnccn2)cc(-c2ccc(C)cc2)c1 (stereo not drawn) [Compound 38, 5-(3-Ethyl-3H-[1,2,3]triazol-4-yl)-4′-methyl-biphenyl-3-carboxylic acid (1-pyrazin-2-yl-ethyl)-amide] | 9.77 nM | 550 nM
2 | CCn1cc(-c2cc(C(=O)N[C@H](C)COC)cc(-c3ccc(C)cc3)c2)nn1 [Compound 39, 5-(1-Ethyl-1H-[1,2,3]triazol-4-yl)-4′-methyl-biphenyl-3-carboxylic acid ((R)-2-methoxy-1-methyl-ethyl)-amide] | 8510 nM | 10000 nM
3 | CCn1cc(-c2cc(C(=O)N[C@@H](C)CO)cc(-c3ccc(C)cc3)c2)nn1 [Compound 40, 5-(1-Ethyl-1H-[1,2,3]triazol-4-yl)-4′-methyl-biphenyl-3-carboxylic acid ((S)-2-hydroxy-1-methyl-ethyl)-amide] | 10000 nM | 10000 nM
4 | CCn1cc(-c2cc(C(=O)NC(C)c3cnccn3)cc(-c3ccc(C)cc3)c2)nn1 (stereo not drawn) [Compound 41, 5-(1-Ethyl-1H-[1,2,3]triazol-4-yl)-4′-methyl-biphenyl-3-carboxylic acid (1-pyrazin-2-yl-ethyl)-amide] | 182 nM | 7410 nM
5 | CCn1cnnc1-c1cc(C(=O)NC(C)c2cnccn2)cc(-c2ccc(C)cc2)c1 (stereo not drawn) [Compound 43, 5-(4-Ethyl-4H-[1,2,4]triazol-3-yl)-4′-methyl-biphenyl-3-carboxylic acid (1-pyrazin-2-yl-ethyl)-amide] | 7.76 nM | 813 nM
6 | CC(NC(=O)c1cc(-c2ccc(Cl)cc2)cc(-n2ncnc2N(C)C)c1)c1cnccn1 (stereo not drawn) [Compound 44, 4′-Chloro-5-(5-dimethylamino-[1,2,4]triazol-1-yl)-biphenyl-3-carboxylic acid (1-pyrazin-2-yl-ethyl)-amide] | 81.3 nM | 759 nM
7 | COCc1ncnn1-c1cc(C(=O)N[C@@H](C)CO)cc(-c2ccc(C)cc2)c1 [Compound 45, 5-(5-Methoxymethyl-[1,2,4]triazol-1-yl)-4′-methyl-biphenyl-3-carboxylic acid ((S)-2-hydroxy-1-methyl-ethyl)-amide] | 12.9 nM | 3160 nM
8 | COCc1ncnn1-c1cc(C(=O)NC(C)c2cnccn2)cc(-c2ccc(C)cc2)c1 (stereo not drawn) [Compound 46, 5-(5-Methoxymethyl-[1,2,4]triazol-1-yl)-4′-methyl-biphenyl-3-carboxylic acid (1-pyrazin-2-yl-ethyl)-amide] | 5.13 nM | 204 nM
9 | COC(C)c1ncnn1-c1cc(C(=O)N[C@@H](C)CO)cc(-c2ccc(C)cc2)c1 (stereo partly drawn) [Compound 47, 5-[5-(1-Methoxy-ethyl)-[1,2,4]triazol-1-yl]-4′-methyl-biphenyl-3-carboxylic acid ((S)-2-hydroxy-1-methyl-ethyl)-amide] | 4.68 nM | 2040 nM
10 | COC(C)c1ncnn1-c1cc(C(=O)NC(C)c2cnccn2)cc(-c2ccc(C)cc2)c1 (stereo not drawn) [Compound 48, 5-[5-(1-Methoxy-ethyl)-[1,2,4]triazol-1-yl]-4′-methyl-biphenyl-3-carboxylic acid (1-pyrazin-2-yl-ethyl)-amide] | 3.89 nM | 43.7 nM
11 | Cc1ccc(-c2cc(C(=O)NC(C)c3cnccn3)cc(-n3ncnc3C(C)O)c2)cc1 (stereo not drawn) [Compound 49, 5-[5-(1-Hydroxy-ethyl)-[1,2,4]triazol-1-yl]-4′-methyl-biphenyl-3-carboxylic acid (1-pyrazin-2-yl-ethyl)-amide] | 5.13 nM | 282 nM
12 | COc1ncnn1-c1cc(C(=O)NC(C)c2cnccn2)cc(-c2ccc(Cl)cc2)c1 (stereo not drawn) [Compound 50, 4′-Chloro-5-(5-methoxy-[1,2,4]triazol-1-yl)-biphenyl-3-carboxylic acid (1-pyrazin-2-yl-ethyl)-amide] | 26.9 nM | 537 nM
13 | CC(NC(=O)c1cc(-c2ccc(Cl)cc2)cc(-n2cncn2)c1)c1cnccn1 (stereo not drawn) [Compound 51, 4′-Chloro-5-[1,2,4]triazol-1-yl-biphenyl-3-carboxylic acid (1-pyrazin-2-yl-ethyl)-amide] | 200 nM | 2950 nM
14 | CC(C)Oc1ncnn1-c1cc(C(=O)NC(C)c2cnccn2)cc(-c2ccc(Cl)cc2)c1 (stereo not drawn) [Compound 52, 4′-Chloro-5-(5-isopropoxy-[1,2,4]triazol-1-yl)-biphenyl-3-carboxylic acid (1-pyrazin-2-yl-ethyl)-amide] | 14.1 nM | 891 nM
15 | Cc1ccc(-c2cc(C(=O)NC(C)c3cnccn3)cc(-c3ncnn3C(C)C)c2)cc1 (stereo not drawn) [Compound 53, 5-(2-Isopropyl-2H-[1,2,4]triazol-3-yl)-4′-methyl-biphenyl-3-carboxylic acid (1-pyrazin-2-yl-ethyl)-amide] | 12.9 nM | 309 nM
16 | Cc1ccc(-c2cc(C(=O)N[C@@H](C)CO)cc(-c3ncnn3C(C)C)c2)cc1 [Compound 54, 5-(2-Isopropyl-2H-[1,2,4]triazol-3-yl)-4′-methyl-biphenyl-3-carboxylic acid (2-hydroxy-1-methyl-ethyl)-amide] | 21.4 nM | 2450 nM
17 | Cc1ccc(-c2cc(C(=O)N[C@@H](C)CO)cc(-n3ncnc3C(C)C)c2)nc1 [Compound 55, N-(2-Hydroxy-1-methyl-ethyl)-3-(5-isopropyl-[1,2,4]triazol-1-yl)-5-(5-methyl-pyridin-2-yl)-benzamide] | 5.37 nM | 457 nM
18 | Cc1ccc(-c2cc(C(=O)NC(C)c3cnccn3)cc(-n3ncnc3C(C)C)c2)nc1 (stereo not drawn) [Compound 56, 3-(5-Isopropyl-[1,2,4]triazol-1-yl)-5-(5-methyl-pyridin-2-yl)-N-(1-pyrazin-2-yl-ethyl)-benzamide] | 4.57 nM | 42.7 nM
19 | COC(C)c1ncnn1-c1cc(C(=O)N[C@@H](C)CO)cc(-c2ccc(C)cn2)c1 (stereo partly drawn) [Compound 57, N-(2-Hydroxy-1-methyl-ethyl)-3-[5-(1-methoxy-ethyl)-[1,2,4]triazol-1-yl]-5-(5-methyl-pyridin-2-yl)-benzamide] | 74.1 nM | 7940 nM
20 | COC(C)c1ncnn1-c1cc(C(=O)NC(C)c2cnccn2)cc(-c2ccc(C)cn2)c1 (stereo not drawn) [Compound 58, 3-[5-(1-Methoxy-ethyl)-[1,2,4]triazol-1-yl]-5-(5-methyl-pyridin-2-yl)-N-(1-pyrazin-2-yl-ethyl)-benzamide] | 17 nM | 132 nM
21 | Cc1ccc(-c2cc(C(=O)N[C@@H](C)CO)cc(-n3ncnc3C3CC3)c2)nc1 [Compound 59, 3-(5-Cyclopropyl-[1,2,4]triazol-1-yl)-N-(2-hydroxy-1-methyl-ethyl)-5-(5-methyl-pyridin-2-yl)-benzamide] | 77.6 nM | 6170 nM
